# Test results as given in patent US20090208747A1, “Novel Crystalline Methods and Novel Crystalline and Amorphous forms of Halogenated Sugars” (V.B. MEDICARE PVT. LTD, priority 2006, published 2009).
# How the values were obtained:
# [1] = Accelerated stability test, sealed containers incubated at 50° C.; format: physicochemical; conditions: sealed container
# Description: For extrapolating potential storage stability beyond one year, an accelerated storage stability test was conducted. In this test, crystalline TGS of small and large mean particle size was incubated at 50° C. in sealed containers. Percent assay and pH were tested after each 24 hours for five successive days. […] A three days' stability in accelerated stability test is extrapolated by Catani et al (2005) to 8 years of storage stability at ambient temperature.
# All the three samples were taken in sealed containers and were incubated at 50° C. […]
# [2] = Particle size analysis; conditions: for particle size distribution at 90%: 90% of particles below this size
# Description: The TGS crystals obtained were tested for purity and particle size.
# The solids obtained were tested for purity, particle size and X ray diffraction for the nature of solid obtained.
# [3] = Stability testing as per ICH Guideline Q1A(R2), storage stability; format: physicochemical; conditions: for Appearance: storage condition not given
# From the text: Stability testing was done as per ICH Harmonised Tripaertite Guideline Stability Testing of New drug substances and Products Q1A(R2) issued by International Conference on Hamonization of technical requirements for registration of pharmaceuticals for human use and recommended for adoption at Step 4 of the ICH Process on 6 Feb.
# Details are given on table nos 1 to 4 given in the following: […]
# [4] = Analysis against JECFA specifications: solubility; format: physicochemical; conditions: in ethyl acetate
# [5] = Fourth day, listed as Amorphous TGS
smiles,measurement,setting,value
OC[C@H]1O[C@H](O[C@]2(CCl)O[C@H](CCl)[C@@H](O)[C@@H]2O)[C@H](O)[C@@H](O)[C@H]1Cl [1′-6′-Dichloro-1′-6′-DIDEOXY-β-Fructofuranasyl-4-chloro-4-deoxy-galactopyranoside],Assay (%),[1]; Fifth day,96.86%
same,PH,[1]; Fifth day,7.00
same,Assay (%),[1]; First day,98.73%
same,PH,[1]; First day,7.08
same,Assay (%),[1]; Fourth day,97.06%
same,PH,[1]; Fourth day,7.00
same,Assay (%),[1]; Second day,98.21%
same,PH,[1]; Second day,7.08
same,Assay (%),[1]; Sixth day,96.72%
same,PH,[1]; Sixth day,7.02
same,Assay (%),[1]; Third day,97.53%
same,PH,[1]; Third day,7.02
same,decline in percent assay,[1]; by fifth day,1.87%
same,decline in percent assay,[1]; by sixth day,2.01%
same,decline in percent assay,"[1]; in first three days, listed as large particle size crystalline TGS",1.2%
same,difference in pH,[1]; over the test period,not substantial
same,particle size distribution at 90%,[2]; listed as Example 5,below 240 microns
same,mean particle size,[2]; listed as Crystalline TGS (big particle size),about 35 micron
"OC[C@H]1O[C@H](O[C@]2(CCl)O[C@H](CCl)[C@@H](O)[C@@H]2O)[C@H](O)[C@@H](O)[C@H]1Cl [Amorphous TGS small particle size, 1′-6′-Dichloro-1′-6′-DIDEOXY-β-Fructofuranasyl-4-chloro-4-deoxy-galactopyranoside]",Assay,"[3]; 25° C. ± 2° C. 60% RH ± 5% RH, 1st month",99.34%
same,Assay,"[3]; 25° C. ± 2° C. 60% RH ± 5% RH, 2nd month",99.36%
same,Assay,"[3]; 25° C. ± 2° C. 60% RH ± 5% RH, 3rd month",99.32%
same,Assay,"[3]; 25° C. ± 2° C. 60% RH ± 5% RH, 4th month",99.36%
same,Assay,"[3]; 25° C. ± 2° C. 60% RH ± 5% RH, 5th month",99.28%
same,Assay,"[3]; 25° C. ± 2° C. 60% RH ± 5% RH, 6th month",99.23%
same,Assay,"[3]; 25° C. ± 2° C. 60% RH ± 5% RH, 12th month",99.22%
same,Assay,"[3]; 25° C. ± 2° C. 60% RH ± 5% RH, 24th month",99.14%
same,Assay,"[3]; 30° C. ± 2° C. 65% RH ± 5% RH, 1st month",99.84%
same,Assay,"[3]; 30° C. ± 2° C. 65% RH ± 5% RH, 2nd month",99.84%
same,Assay,"[3]; 30° C. ± 2° C. 65% RH ± 5% RH, 3rd month",99.62%
same,Assay,"[3]; 30° C. ± 2° C. 65% RH ± 5% RH, 4th month",99.65%
same,Assay,"[3]; 30° C. ± 2° C. 65% RH ± 5% RH, 5th month",99.58%
same,Assay,"[3]; 30° C. ± 2° C. 65% RH ± 5% RH, 6th month",99.53%
same,Assay,"[3]; 30° C. ± 2° C. 65% RH ± 5% RH, 12th month",99.62%
same,Assay,"[3]; 30° C. ± 2° C. 65% RH ± 5% RH, 24th month",99.32%
same,Assay,"[3]; 40° C. ± 2° C. 75% RH ± 5% RH, 1st month",99.68%
same,Assay,"[3]; 40° C. ± 2° C. 75% RH ± 5% RH, 2nd month",99.65%
same,Assay,"[3]; 40° C. ± 2° C. 75% RH ± 5% RH, 3rd month",99.67%
same,Assay,"[3]; 40° C. ± 2° C. 75% RH ± 5% RH, 4th month",99.58%
same,Assay,"[3]; 40° C. ± 2° C. 75% RH ± 5% RH, 5th month",99.52%
same,Assay,"[3]; 40° C. ± 2° C. 75% RH ± 5% RH, 6th month",99.46%
same,Assay,"[3]; 40° C. ± 2° C. 75% RH ± 5% RH, 12th month",99.52%
same,Assay,"[3]; 40° C. ± 2° C. 75% RH ± 5% RH, 24th month",99.12%
same,Assay,[3]; INITIAL (printed in the 40° C. ± 2° C. 75% RH ± 5% RH column),99.70%
same,stability in storage,[3]; storage,stable for at least one year in storage
same,Appearance,[3]; 1st month,Normal
same,Appearance,[3]; 2nd month,Normal
same,Appearance,[3]; 3rd month,Normal
same,Appearance,[3]; 4th month,Normal
same,Appearance,[3]; 5th month,Normal
same,Appearance,[3]; 6th month,Normal
same,Appearance,[3]; 12th month,Normal
same,Appearance,[3]; 24th month,Normal
same,Appearance,[3]; INITIAL,Normal
same,stability compared to the crystalline form,[3]; table 4,much more stable
same,PH,[1]; Fifth day,7.06
same,Assay (%),"[1]; Fifth day, listed as Amorphous TGS",98.19%
same,PH,[1]; First day,7.03
same,Assay (%),"[1]; First day, listed as Amorphous TGS",98.21%
same,Assay (%),[1]; [5],98.18%
same,PH,[1]; [5],7.02
same,PH,[1]; Second day,7.03
same,Assay (%),"[1]; Second day, listed as Amorphous TGS",98.20%
same,PH,[1]; Sixth day,7.05
same,Assay (%),"[1]; Sixth day, listed as Amorphous TGS",98.17%
same,Assay (%),"[1]; Third day, listed as Amorphous TGS",98.24%
same,decline in percent assay,"[1]; in first three days, listed as Amorphous form",0.08%
same,decline in percent assay,"[1]; in first three days, listed as amorphous form",0.08%
same,decline in pH,[1]; over three days,0.08 units
same,Solubility,[4],water. Slightly
same,particle size distribution at 90%,[2]; listed as Example 3,below 6 microns
same,particle size distribution at 90%,[2]; listed as amorphous product,less than 6 microns
same,largest particle size,[2]; listed as amorphous form,≤ 14 microns
"OC[C@H]1O[C@H](O[C@]2(CCl)O[C@H](CCl)[C@@H](O)[C@@H]2O)[C@H](O)[C@@H](O)[C@H]1Cl [Example 4, 1′-6′-Dichloro-1′-6′-DIDEOXY-β-Fructofuranasyl-4-chloro-4-deoxy-galactopyranoside]",particle size distribution at 90%,[2],< 95 microns
"OC[C@H]1O[C@H](O[C@]2(CCl)O[C@H](CCl)[C@@H](O)[C@@H]2O)[C@H](O)[C@@H](O)[C@H]1Cl [Example 6, 1′-6′-Dichloro-1′-6′-DIDEOXY-β-Fructofuranasyl-4-chloro-4-deoxy-galactopyranoside]",particle size distribution at 90%,[2],below 12 microns
